According to patent US8952039B2, “Pyridone derivatives and their use in the treatment, ameloriation or prevention of a viral disease” (priority 2013, dated 2015):

Biological target: T1, influenza A virus (IAV) PA-Nter fragment (amino acids 1-209) (Influenza A virus, UniProt P31343)
T1 construct: PA-Nter fragment (amino acids 1-209); made in house
Test: FRET endonuclease activity assay
Assay type: biochemical
Settings: for inhibition at 10 µM: 10 μM compound, % reduction of v0 compared to untreated; for IC50: calculated from initial reaction velocities (v0), 0.5 μM PA-Nter, 1.6 μM RNA substrate

Structure (SMILES)	inhibition at 10 µM	IC50
CC(C)NC(=O)c1c(O)c(=O)cc(CNS(=O)(=O)c2ccccc2)n1C	13%	
Cc1ccc(S(=O)(=O)NCc2cc(=O)c(O)c(C(=O)NC(C)C)n2C)cc1	8%	
Cc1cccc(S(=O)(=O)NCc2cc(=O)c(O)c(C(=O)NC(C)C)n2C)c1	36%	
CNC(=O)c1c(O)c(=O)cc(CNS(=O)(=O)c2ccc(C)cc2)n1C	10%	
CC(C)NC(=O)c1c(O)c(=O)ccn1C(C)Cc1ccccc1 (centres unmarked)	7%	
CNC(=O)c1c(O)c(=O)cc(CNS(=O)(=O)c2ccc(Cl)cc2)n1C	7%	
CNC(=O)c1c(O)c(=O)cc(CNS(=O)(=O)c2ccccc2C)n1C		12.2 µM
Cn1c(CNS(=O)(=O)c2ccc(Cl)cc2)cc(=O)c(O)c1C(=O)O		1.14 µM
CC(C)NC(=O)c1c(O)c(=O)cc(CNS(=O)(=O)c2ccc(Cl)cc2)n1C	11%	
CC(C)NC(=O)c1c(O)c(=O)cc(CNS(=O)(=O)c2ccccc2Cl)n1C		6.3 µM
CNC(=O)c1c(O)c(=O)cc(Cc2ccccc2-c2ccccc2)n1C	10%	
Cn1c(CNS(=O)(=O)c2ccccc2)cc(=O)c(O)c1C(=O)O		0.56 µM
Cn1c(CNS(=O)(=O)c2ccccc2Cl)cc(=O)c(O)c1C(=O)O		0.11 µM
Cc1ccccc1S(=O)(=O)NCc1cc(=O)c(O)c(C(=O)NC(C)C)n1C		4.6 µM
Cc1cccc(S(=O)(=O)NCc2cc(=O)c(O)c(C(=O)O)n2C)c1		0.53 µM
CNC(=O)c1c(O)c(=O)cc(CNS(=O)(=O)c2ccccc2Cl)n1C		9 µM
Cn1c(Cc2ccccc2-c2ccccc2)cc(=O)c(O)c1C(N)=O	17%	
Cc1ccccc1S(=O)(=O)NCc1cc(=O)c(O)c(C(=O)O)n1C		0.28 µM
CNC(=O)c1c(O)c(=O)cc(CNS(=O)(=O)c2ccccc2)n1C	13%	
CNC(=O)c1c(O)c(=O)cc(CNS(=O)(=O)c2cccc(Cl)c2)n1C	23%	
CC(C)NC(=O)c1c(O)c(=O)cc(CNS(=O)(=O)c2cccc(Cl)c2)n1C	13%	
CC(C)NC(=O)c1c(O)c(=O)cc(Cc2ccccc2-c2ccccc2)n1C	13%	
Cn1c(CNS(=O)(=O)c2cccc(Cl)c2)cc(=O)c(O)c1C(=O)O		0.15 µM
CNC(=O)c1c(O)c(=O)cc(CNS(=O)(=O)c2cccc(C)c2)n1C	33%	
Cn1c(Cc2ccccc2-c2ccccc2)cc(=O)c(O)c1C(=O)O		0.4 µM
Cc1ccc(S(=O)(=O)NCc2cc(=O)c(O)c(C(=O)O)n2C)cc1		0.97 µM
